The record followed here is article PMC3206575 (The Journal of Cell Biology, 1999).

In experiment [1] the target is T1, DRal (Drosophila Ral), GST-DRal (Drosophila melanogaster, UniProt P48555).
T1 sequence (P48555 1-201): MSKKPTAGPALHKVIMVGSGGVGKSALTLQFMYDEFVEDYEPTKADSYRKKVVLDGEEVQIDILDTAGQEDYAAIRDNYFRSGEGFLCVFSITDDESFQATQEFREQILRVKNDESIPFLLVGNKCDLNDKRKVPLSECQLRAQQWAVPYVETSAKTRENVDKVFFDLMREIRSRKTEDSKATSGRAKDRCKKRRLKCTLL
Kind of experiment: [3H]GDP binding to GST fusion protein.

Experiment [2] has as its target T2, DRal (Drosophila Ral), GST-DRal (Drosophila melanogaster, UniProt P48555, G20V).
T2 sequence (P48555 1-201 G20V): T1 sequence (P48555 1-201) with G20V
Kind of experiment: [3H]GDP binding to GST fusion protein.

Experiment [3] concerns the target T3, DRal (Drosophila Ral), GST-DRal (Drosophila melanogaster, UniProt P48555, S25N).
T3 sequence (P48555 1-201 S25N): T1 sequence (P48555 1-201) with S25N
The experiment is described as follows: [3H]GDP binding to GST fusion protein.

The target of experiment [4] is T2, DRal (Drosophila Ral), GST-DRal. Kind of experiment: […]GTPγS binding to GST fusion protein. Background: GTPγS is a poorly hydrolysed GTP analogue; its binding reports G protein activation.
Experiment [5] addresses T3, DRal (Drosophila Ral), GST-DRal. The experiment is described as follows: […]GTPγS binding to GST fusion protein.
The target of experiment [6] is T1, DRal (Drosophila Ral), GST-DRal. Kind of experiment: […]GTPγS binding to GST fusion protein.

Changes are numbered by the printed parent chain.

For orientation: Kd means the equilibrium constant for the complex coming apart.

For `Nc1nc2c(ncn2[C@@H]2O[C@H](COP(=O)(O)OP(=O)(O)O)[C@@H](O)[C@H]2O)c(=O)[nH]1` [GDP], the results for the Kd in experiment [1], in experiment [2] and in experiment [3] were 0.014 µM, 0.0084 µM and 0.0951 µM, respectively.

Regarding `Nc1nc2c(ncn2[C@@H]2O[C@H](COP(=O)(O)OP(=O)(O)OP(O)(O)=S)[C@@H](O)[C@H]2O)c(=O)[nH]1` [GTPγS], the dissociation constant Kd in experiment [4] was 0.038 µM; in experiment [5] it was 0.406 µM; in experiment [6] it was 0.0307 µM.
